One molecule from article PMC7403104 (Antiviral Research, 2020) can be followed below.

The target in test [1] is YFV polymerase (NS5 RdRp) (Yellow fever virus, UniProt P03314). The experiment in a line: biochemical.
The test system of test [2] is flaviviral polymerases (DENV3, TBEV, JEV, WNV, ZIKV, YFV). Type of test: biochemical, flaviviruses.
The subject of test [3] is six flaviviral polymerases (NS5 proteins of DENV3, TBEV, JEV, WNV, ZIKV, YFV). Format: biochemical, flaviviruses.

Molecules are shown by their SMILES.

Sequence of YFV polymerase (NS5 RdRp) (P03314 2507-3411 limits assumed): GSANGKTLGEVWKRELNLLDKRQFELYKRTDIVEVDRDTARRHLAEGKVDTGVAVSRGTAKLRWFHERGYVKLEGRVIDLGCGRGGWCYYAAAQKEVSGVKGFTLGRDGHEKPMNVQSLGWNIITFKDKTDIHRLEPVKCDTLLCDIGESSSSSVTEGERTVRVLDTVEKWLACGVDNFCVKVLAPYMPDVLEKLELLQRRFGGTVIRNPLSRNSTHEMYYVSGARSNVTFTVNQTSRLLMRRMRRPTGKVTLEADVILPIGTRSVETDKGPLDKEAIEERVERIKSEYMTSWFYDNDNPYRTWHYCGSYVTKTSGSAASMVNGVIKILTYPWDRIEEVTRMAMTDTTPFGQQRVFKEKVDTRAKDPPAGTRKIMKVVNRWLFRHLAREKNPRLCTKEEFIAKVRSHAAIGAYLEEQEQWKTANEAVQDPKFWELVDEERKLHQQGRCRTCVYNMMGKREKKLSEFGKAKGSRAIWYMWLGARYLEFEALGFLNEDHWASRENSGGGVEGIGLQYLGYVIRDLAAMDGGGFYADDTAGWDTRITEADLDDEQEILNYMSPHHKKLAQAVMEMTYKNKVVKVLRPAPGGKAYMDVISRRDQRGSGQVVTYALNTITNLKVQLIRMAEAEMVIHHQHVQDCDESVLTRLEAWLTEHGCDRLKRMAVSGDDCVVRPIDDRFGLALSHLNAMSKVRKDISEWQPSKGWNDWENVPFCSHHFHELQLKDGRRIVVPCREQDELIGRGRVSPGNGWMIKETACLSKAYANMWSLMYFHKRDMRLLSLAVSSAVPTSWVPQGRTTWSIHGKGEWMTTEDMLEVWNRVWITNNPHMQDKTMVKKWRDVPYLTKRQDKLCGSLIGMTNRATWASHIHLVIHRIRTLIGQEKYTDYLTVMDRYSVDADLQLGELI

By IC50 is commonly meant the concentration that gives 50% inhibition. `CCC(CC)COC(=O)[C@H](C)N[P@](=O)(OC[C@H]1O[C@@](C#N)(c2ccc3c(N)ncnn23)[C@H](O)[C@@H]1O)Oc1ccccc1` [remdesivir, Remdesivir]: the IC50 is 260 ± 30 nM in test [1] and 200 to 2200 nM in test [2] (read-out: IC50 range, all the tested flaviviral polymerases). In addition, in test [2], the “IC50s range in words, flaviviral RdRps” value was “hundreds of nanomolar to single digit micromolar”. The “incorporation into newly synthesized RNA chain / chain termination” value in test [3] was “able to incorporate several (five) remdesivir molecules into the newly synthesized RNA chain and finish the primer elongation reaction”.
